In assay [1] the test system is KM12 cells. The assay can be described thus: KM12 cell viability (CellTiter-Glo). It counts as cell-based. The conditions noted are these: Homo sapiens, 72 h, KM12 cell viability, CellTiter-Glo, read-out: IC50. On the procedure: KM12 or H358 cells were treated with 1000 nM CPD-053 following an 8-point 3-fold serial dilution for 3 days.
KM12 cells seeded in 96-well plates were treated with heterobifunctional compounds following a 11-point 3-fold serial dilution for 3 days.
KM12, H358, HEL, SU-DHL-1 and other cells were cultured at 37° C. with 5% CO2 in RPMI 1640 Medium supplemented with 10% fetal bovine serum. Cells were authenticated using the short tandem repeat (STR) assays. Mycoplasma test results were negative. Stable cell lines were established by lentivirus transduction, selected and maintained in medium containing 1 μg/mL puromycin (Beyotime Biotechnology).
Cells were seeded at a density of 5000 cells per well in 96-well assay plates and treated with test compounds following a 12-point 2-fold serial dilution or a 8-point 3-fold dilution, or 11-point 3-fold serial dilution. Three days later, cell viability was determined using the CellTiter-Glo assay kit (Promega) according to the manufacturer's instructions. The dose-response curves were determined and IC50 values were calculated using the GraphPad Prism software following a nonlinear regression (least squares fit) method.
A general note: In ATP-based viability assays light output follows the ATP content of the culture.

Assay [2] deals with T1, TPM3-TRKA fusion protein (Homo sapiens, UniProt P04629).
T1 construct: The resulted chimeric proteins always retain the kinase domain of TRK proteins; TPM3 (fusion partner, N-terminal part of tropomyosin alpha-3, P06753); endogenous in cells; host or cells: KM12 colon cancer cells; the other entry of the earlier key: TPM3 (P06753, Tropomyosin alpha-3 chain)
The assay can be described thus: TPM3-TRKA fusion protein levels in KM12 cells (Western blot). It counts as cell-based. The conditions noted are these: read-out: Degradation (at 10 nM). Put shortly:
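KM12 colon cancer cells were treated with DMSO or compounds at 0.1–100 nM, 0.4–30 nM or other stated concentrations for 4, 8–16 or 16 h. RIPA lysates were BCA-normalized and resolved by SDS-PAGE. TPM3-TRKA was detected by chemiluminescent Western blot, with bands quantified by densitometry.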
Background: In western blotting, separated proteins are transferred to a membrane and probed.

Setting [3] is: 11-point 3-fold serial dilution, 3 days.
[4] abbreviates: 16 h, TPM3-TRKA degradation in KM12 cells at 10 nM compound, category of percentage degradation.

In general, IC50 refers to the concentration that inhibits the measured activity by half.

Read-outs that look alike come from different tables or passages of the source.

T1 sequence (P04629 with tags, fused parts or gaps): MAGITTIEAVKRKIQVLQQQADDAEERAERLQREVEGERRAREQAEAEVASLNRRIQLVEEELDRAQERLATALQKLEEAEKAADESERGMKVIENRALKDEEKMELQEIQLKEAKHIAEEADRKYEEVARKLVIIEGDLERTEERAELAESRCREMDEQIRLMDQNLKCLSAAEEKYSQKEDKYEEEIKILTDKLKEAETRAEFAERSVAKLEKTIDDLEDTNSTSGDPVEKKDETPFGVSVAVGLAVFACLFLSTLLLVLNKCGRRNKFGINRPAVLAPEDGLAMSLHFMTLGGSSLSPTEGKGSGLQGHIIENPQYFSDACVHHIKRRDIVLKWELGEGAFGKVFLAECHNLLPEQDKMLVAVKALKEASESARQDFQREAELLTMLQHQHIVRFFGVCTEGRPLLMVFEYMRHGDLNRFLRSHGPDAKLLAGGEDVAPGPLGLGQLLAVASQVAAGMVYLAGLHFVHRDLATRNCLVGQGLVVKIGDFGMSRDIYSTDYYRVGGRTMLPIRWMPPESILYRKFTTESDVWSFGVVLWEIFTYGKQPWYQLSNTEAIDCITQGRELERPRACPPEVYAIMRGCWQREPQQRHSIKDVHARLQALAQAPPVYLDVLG

Turning to `Cc1ncsc1-c1ccc(CNC(=O)[C@@H]2C[C@@H](O)CN2C(=O)[C@@H](NC(=O)COCCOCCOCCOCCOCC(=O)N2CCN(c3cccc(-c4cnc5ccc(N6CCCC6c6cccc(F)c6)nn45)n3)CC2)C(C)(C)C)cc1` (stereo partly drawn) [CPD-003, (25,4R)-1-((S)-2-(tert-butyl)-20-(4-(6-(6-((R)-2-(3-Fluorophenyl)pyrrolidin-1-yl)imidazo[1,2-b]pyridazin-3-yl)pyridin-2-yl)piperazin-1-yl)-4,20-dioxo-6,9,12,15,18-pentaoxa-3-azaicosanoyl)-4-hydroxy-N-(4-(4-methylthiazol-5-yl)benzyl)pyrrolidine-2-carboxamide], in assay [1] (three days treatment), the IC50 is above 1 µM. Consider `Cc1ncsc1-c1ccc(CNC(=O)[C@@H]2C[C@@H](O)CN2C(=O)[C@@H](NC(=O)CCOCCOCCOCCOCCOCCC(=O)N2CCN(c3cccc(-c4cnc5ccc(N6CCCC6c6cccc(F)c6)nn45)n3)CC2)C(C)(C)C)cc1` (stereo partly drawn) [CPD-005, (25,4R)-1-((S)-2-(tert-butyl)-22˜ (4-(6-(6-((R)-2˜ (3-Fluorophenyl)pyrrolidin-1-yl)imidazo[1,2-b]pyridazin-3-yl)pyridin-2-yl)piperazin-1-yl)-4,22-dioxo-7,10,13,16,19-pentaoxa-3-azadocosanoyl)-4-hydroxy-N-(4-(4-methylthiazol-5-yl)benzyl)pyrrolidine-2-carboxamide], for which, in assay [1] (three days treatment), the half-inhibitory concentration (IC50) is above 1 µM. As for `Cc1ncsc1-c1ccc(CNC(=O)[C@@H]2CC(O)CN2C(=O)[C@@H](NC(=O)CCOCCOCCOCCOCCOCCC(=O)N2CCN(c3ccc(C(=O)Nc4n[nH]c5ccc(Cc6cc(F)cc(F)c6)cc45)c(NC4CCOCC4)c3)CC2)C(C)(C)C)cc1` (stereo partly drawn) [CPD-043, (28,4R)-1-((S)-2-(tert-butyl)-22-(4-(4-((5-(3,5-Difluorobenzyl)-1H-indazol-3-yl)carbamoyl)-3-((tetrahydro-2H-pyran-4-yl)amino)phenyl)piperazin-1-yl)-4,22-dioxo-7,10,13,16,19-pentaoxa-3-azadocosanoyl)-4-hydroxy-N-(4-(4-methylthiazol-5-yl)benzyl)pyrrolidine-2-carboxamide], the IC50 in assay [1] (three days treatment) is above 1 µM. With `O=C1CCC(N2C(=O)c3ccc(NCC(=O)N4CCC(Nc5cccc(C(=O)Nc6cnn7ccc(N8CCC[C@@H]8c8cc(F)ccc8F)nc67)n5)CC4)cc3C2=O)C(=O)N1` (stereo partly drawn) [CPD-460, N-(5-((R)-2-(2,5-difluorophenyl)pyrrolidin-1-yl)pyrazolo[1,5-a]pyrimidin-3-yl)-6-((1-((2-(2,6-dioxopiperidin-3-yl)-1,3-dioxoisoindolin-5-yl)glycyl)piperidin-4-yl)amino)picolinamide], in assay [1] (setting [3]), the IC50 came out at 0.032 µM. Consider `Cc1ncsc1-c1ccc(CNC(=O)[C@@H]2C[C@@H](O)CN2C(=O)[C@@H](NC(=O)CCC(=O)N2CCC(Nc3cccc(C(=O)Nc4cnn5ccc(N6CCC[C@@H]6c6cc(F)ccc6F)nc45)n3)CC2)C(C)(C)C)cc1` [CPD-461, N-(5-((R)-2-(2,5-difluorophenyl)pyrrolidin-1-yl)pyrazolo[1,2-a]pyrimidin-3-yl)-6-((1-(4-(((S)-1-((2S,4R)-4-hydroxy-2-((4-(4-methylthiazol-5-yl)benzyl)carbamoyl)pyrrolidin-1-yl)-3,3-dimethyl-1-oxobutan-2-yl)amino)-4-oxobutanoyl)piperidin-4-yl)amino)picolinamide], for which the half-maximal inhibitory concentration (IC50) in assay [1] (setting [3]) is above 1 µM. Consider `Cn1c(=O)n(C2CCC(=O)NC2=O)c2cccc(NCCN3CCN(c4cccc(-c5cnc6ccc(N7CCC[C@@H]7c7cccc(F)c7)nn56)n4)CC3)c21` (stereo partly drawn) [TR-216, 3-[4-[2-[4-[6-[6-[(2R)-2-(3-Fluorophenyl)pyrrolidin-1-yl]imidazo[1,2-b]pyridazin-3-yl]-2-pyridyl]piperazin-1-yl]ethylamino]-3-methyl-2-oxo-benzimidazol-1-yl]piperidine-2,6-dione], for which the percent degradation of TPM3-TRKA protein at 0.01 µM in assay [2] (setting [4]) was above 80%. Consider `Cn1c(=O)n(C2CCC(=O)NC2=O)c2cccc(NCCCN3CCN(c4cccc(-c5cnc6ccc(N7CCC[C@@H]7c7cccc(F)c7)nn56)n4)CC3)c21` (stereo partly drawn) [TR-217, 3-[4-[3-[4-[6-[6-[(2R)-2-(3-Fluorophenyl)pyrrolidin-1-yl]imidazo[1,2-b]pyridazin-3-yl]-2-pyridyl]piperazin-1-yl]propylamino]-3-methyl-2-oxo-benzimidazol-1-yl]piperidine-2,6-dione], for which the percent degradation of TPM3-TRKA protein at 0.01 µM in assay [2] (setting [4]) was above 80%. For the compound `O=C1CCC(N2Cc3cc(NCC4CCN(c5cccc(-c6cnc7ccc(N8CCC[C@@H]8c8cccc(F)c8)nn67)n5)CC4)ccc3C2=O)C(=O)N1` (stereo partly drawn) [TR-218, 3-(5-(((1-(6-(6-((R)-2-(3-fluorophenyl)pyrrolidin-1-yl)imidazo[1,2-b]pyridazin-3-yl)pyridin-2-yl)piperidin-4-yl)methyl)amino)-1-oxoisoindolin-2-yl)piperidine-2,6-dione], the percent degradation of TPM3-TRKA protein at 0.01 µM in assay [2] (setting [4]) lay in the range of 50 to 80%.

`O=C1CCC(N2Cc3cc(C#CC4CN(c5cccc(-c6cnc7ccc(N8CCC[C@@H]8c8cccc(F)c8)nn67)n5)C4)ccc3C2=O)C(=O)N1` (stereo partly drawn) [TR-219, 3-(5-((1-(6-(6-((R)-2-(3-Fluorophenyl)pyrrolidin-1-yl)imidazo[1,2-b]pyridazin-3-yl)pyridin-2-yl)azetidin-3-yl)ethynyl)-1-oxoisoindolin-2-yl)piperidine-2,6-dione]: the percent degradation of TPM3-TRKA protein at 0.01 µM in assay [2] (setting [4]) is 50 to 80%. As to `Cn1c(=O)n(C2CCC(=O)NC2=O)c2ccc(NCCN3CCN(c4cccc(-c5cnc6ccc(N7CCC[C@@H]7c7cccc(F)c7)nn56)n4)CC3)cc21` (stereo partly drawn) [TR-220, 3-(5-((2-(4-(6-(6-((R)-2-(3-Fluorophenyl)pyrrolidin-1-yl)imidazo[1,2-b]pyridazin-3-yl)pyridin-2-yl)piperazin-1-yl)ethyl)amino)-3-methyl-2-oxo-2,3-dihydro-1H-benzo[d]imidazol-1-yl)piperidine-2,6-dione], the percent degradation of TPM3-TRKA protein at 0.01 µM in assay [2] (setting [4]) was above 80%.

Consider `O=C1CCC(N2C[C@H](c3cccc(C#CCN4CCN(c5cccc(-c6cnc7ccc(N8CCC[C@@H]8c8cccc(F)c8)nn67)n5)CC4)c3)OC2=O)C(=O)N1` (stereo partly drawn) [TR-223, 3-((S)-5-(3-(3-(4-(6-(6-((R)-2-(3-fluorophenyl)pyrrolidin-1-yl)imidazo[1,2-b]pyridazin-3-yl)pyridin-2-yl)piperazin-1-yl)prop-1-yn-1-yl)phenyl)-2-oxooxazolidin-3-yl)piperidine-2,6-dione], for which, in assay [2] (setting [4]), the percent degradation of TPM3-TRKA protein at 0.01 µM lay within 50 to 80%. For `O=C1CCC(N2C(=O)c3ccc(N4CCC(CN5CCN(c6cccc(-c7cnc8ccc(N9CCC[C@@H]9c9cccc(F)c9)nn78)n6)CC5)CC4)cc3C2=O)C(=O)N1` (stereo partly drawn) [TR-226, 2-(2,6-dioxopiperidin-3-yl)-5-(4-((4-(6-(6-((R)-2-(3-fluorophenyl)pyrrolidin-1-yl)imidazo[1,2-b]pyridazin-3-yl)pyridin-2-yl)piperazin-1-yl)methyl)piperidin-1-yl)isoindoline-1,3-dione], the percent degradation of TPM3-TRKA protein at 0.01 µM in assay [2] (setting [4]) is above 80%.

On to `O=C1CCC(N2C[C@H](c3ccc(CN4CCN(c5cccc(-c6cnc7ccc(N8CCC[C@@H]8c8cccc(F)c8)nn67)n5)CC4)cc3)OC2=O)C(=O)N1` (stereo partly drawn) [TR-229, 3-((S)-5-(4-((4-(6-(6-((R)-2-(3-fluorophenyl)pyrrolidin-1-yl)imidazo[1,2-b]pyridazin-3-yl)pyridin-2-yl)piperazin-1-yl)methyl)phenyl)-2-oxooxazolidin-3-yl)piperidine-2,6-dione], for which, in assay [2] (setting [4]), the percent degradation of TPM3-TRKA protein at 0.01 µM is 50 to 80%.

As to `O=C1CCC(N2C(=O)c3ccc(NCCN4CCN(c5ccc(C(=O)Nc6n[nH]c7ccc(Cc8cc(F)cc(F)c8)cc67)c(NC6CCOCC6)c5)CC4)cc3C2=O)C(=O)N1` (stereo not shown) [TR-232, N-(5-(3,5-difluorobenzyl)-1H-indazol-3-yl)-4-(4-(2-((2-(2,6-dioxopiperidin-3-yl)-1,3-dioxoisoindolin-5-yl)amino)ethyl)piperazin-1-yl)-2-((tetrahydro-2H-pyran-4-yl)amino)benzamide], the percent degradation of TPM3-TRKA protein at 0.01 µM in assay [2] (setting [4]) is above 80%. The same measure, in the same setting: under `O=C1CCC(N2C[C@H](c3cccc(CN4CCN(c5cccc(-c6cnc7ccc(N8CCC[C@@H]8c8cccc(F)c8)nn67)n5)CC4)c3)OC2=O)C(=O)N1` (stereo partly drawn) [TR-235, 3—((S)-5-(3-((4-(6-(6-((R)-2-(3-Fluorophenyl)pyrrolidin-1-yl)imidazo[1,2-b]pyridazin-3-yl)pyridin-2-yl)piperazin-1-yl)methyl)phenyl)-2-oxooxazolidin-3-yl)piperidine-2,6-dione] stands 50 to 80%. `Cn1c(=O)n(C2CCC(=O)NC2=O)c2cccc(OCCCN3CCN(c4cccc(-c5cnc6ccc(N7CCC[C@@H]7c7cccc(F)c7)nn56)n4)CC3)c21` (stereo partly shown) [TR-245]: the percent degradation of TPM3-TRKA protein at 0.01 µM in assay [2] (KM12, 16 h) is below 50%.

For the origin of these results see patent US12410171B2, “Tropomyosin receptor kinase (TRK) degradation compounds and methods of use” (Cullgen (Shanghai), Inc., priority 2020, dated 2025).
